According to patent US20240270740A1, “INHIBITORS OF CYCLIC GMP-AMP SYNTHASE AND USES THEREOF” (Ventus Therapeutics U.S., Inc., priority 2022, published 2024):

These molecules were tested against hcGAS (Homo sapiens, UniProt Q8N884) (assay: hcGAS LCMS assay (direct measurement of cGAMP production)). Conditions: 0.5 nM hcGAS, 100 μM ATP, 100 μM GTP, 25 nM dsDNA, 4 h incubation.
Format: biochemical
Method: cGAS catalyzes the cyclization of ATP and GTP to produce cGAMP, which is the activating ligand of STING. Human cGAS (hcGAS) inhibition can thus be quantified by measuring how much cGAMP is formed either indirectly, by monitoring ATP-depletion as in the hcGAS Kinase-Glo assay (as described below), or directly, such as using the hcGAS LCMS assay (as described below).
Compounds were tested for their h-cGAS inhibition activity using direct measurement of cGAMP production by LC/MS. Briefly, compounds were incubated with enzyme and substrates for 4 hours (see Table C), before the reaction was stopped with 3 volumes of 70/30 Acetonitrile/H2O mix containing 0.15 mM cGAMP-^13C10^5N5 as internal standard and mixed for […]. After centrifugation (3700 rpm, 10 min, 10° Celsius), […] of each reaction was collected and mixed to equal volume of Acetonitrile. Samples were then analyzed on Qexective (Column: XBridge BEH Amide Column, 130 Å, 3.5 μm, 3 mm×50 mm, Mobile phase A: 10 mM Ammonium acetate in 95/5% H2O/Acetonitrile (0.5% DMSO), Mobile phase B: Acetonitrile (0.5% DMSO).
The results of the assay, expressed as IC50 values, are reported in Table D with the following designations: A represents an IC50 value<0.005 μM; B represents an IC50 value≥0.005 μM and <0.02 μM, C represents an IC50 value≥0.02 μM and <0.06 μM; D represents an IC50 value≥0.06 and <0.2 μM; E represents an IC50 value≥0.2.

hcGAS, sequence (Q8N884 whole entry): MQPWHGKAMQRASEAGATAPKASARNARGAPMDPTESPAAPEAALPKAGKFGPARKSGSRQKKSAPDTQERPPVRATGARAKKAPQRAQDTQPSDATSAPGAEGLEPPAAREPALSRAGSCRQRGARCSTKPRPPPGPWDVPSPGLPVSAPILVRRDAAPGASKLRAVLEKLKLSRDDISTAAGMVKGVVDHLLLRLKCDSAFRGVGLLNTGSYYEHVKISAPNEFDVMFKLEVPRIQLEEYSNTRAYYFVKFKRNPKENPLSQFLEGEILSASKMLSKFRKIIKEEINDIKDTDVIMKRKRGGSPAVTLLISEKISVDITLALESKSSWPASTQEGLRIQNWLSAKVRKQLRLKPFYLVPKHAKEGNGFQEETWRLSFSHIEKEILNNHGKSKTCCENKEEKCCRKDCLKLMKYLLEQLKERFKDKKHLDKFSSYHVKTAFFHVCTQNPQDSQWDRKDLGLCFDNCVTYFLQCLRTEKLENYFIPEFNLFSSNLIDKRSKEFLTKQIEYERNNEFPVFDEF

Row | SMILES | IC50
1 | COc1c(N[C@H]2CCC[C@H]2O)cc(C(=O)Nc2nnc(-n3nccc3C)s2)oc1=O [Compound 5, 4-(((1S,2R)-2-hydroxycyclopentyl)amino)-3-methoxy-N-(5-(5-methyl-1H-pyrazol-1-yl)-1,3,4-thiadiazol-2-yl)-2-oxo-2H-pyran-6-carboxamide] | 5 to 20 nM
2 | COc1c(N[C@H]2COC[C@@H]2OC)cc(C(=O)Nc2nnc(-n3nccc3C)s2)oc1=O [Compound 13, 3-methoxy-4-(((3S,4R)-4-methoxytetrahydrofuran-3-yl)amino)-N-(5-(5-methyl-1H-pyrazol-1-yl)-1,3,4-thiadiazol-2-yl)-2-oxo-2H-pyran-6-carboxamide] | 5 to 20 nM
3 | COc1c(NCCOCC(F)F)cc(C(=O)Nc2nnc(-n3nccc3C)s2)oc1=O [Compound 17, 4-((2-(2,2-difluoroethoxy)ethyl)amino)-3-methoxy-N-(5-(5-methyl-1H-pyrazol-1-yl)-1,3,4-thiadiazol-2-yl)-2-oxo-2H-pyran-6-carboxamide] | 20 to 60 nM
4 | COc1c(NC23CCC(CC2)CC3)cc(C(=O)Nc2nnc(-n3nccc3C)s2)oc1=O [Compound 18, 4-(bicyclo[2.2.2]octan-1-ylamino)-3-methoxy-N-(5-(5-methyl-1H-pyrazol-1-yl)-1,3,4-thiadiazol-2-yl)-2-oxo-2H-pyran-6-carboxamide] | < 5 nM
5 | COc1c(NC[C@H]2CCCO2)cc(C(=O)Nc2nnc(-n3nccc3C)s2)oc1=O [Compound 20, (R)-3-methoxy-N-(5-(5-methyl-1H-pyrazol-1-yl)-1,3,4-thiadiazol-2-yl)-2-oxo-4-(((tetrahydrofuran-2-yl)methyl)amino)-2H-pyran-6-carboxamide] | 20 to 60 nM
6 | COc1c(N[C@H]2CCCC[C@H]2OC)cc(C(=O)Nc2nnc(-n3nccc3C)s2)oc1=O [Compound 27, 3-methoxy-4-(((1S,2R)-2-methoxycyclohexyl)amino)-N-(5-(5-methyl-1H-pyrazol-1-yl)-1,3,4-thiadiazol-2-yl)-2-oxo-2H-pyran-6-carboxamide] | 5 to 20 nM
7 | COC[C@@H](Nc1cc(C(=O)Nc2nnc(-n3nccc3C)s2)oc(=O)c1OC)c1ccccc1 [Compound 49, (S)-3-methoxy-4-((2-methoxy-1-phenylethyl)amino)-N-(5-(5-methyl-1H-pyrazol-1-yl)-1,3,4-thiadiazol-2-yl)-2-oxo-2H-pyran-6-carboxamide] | 20 to 60 nM
8 | COc1c(NC2CC3(COC3)C2)cc(C(=O)Nc2nnc(-n3nccc3C)s2)oc1=O [Compound 50, 4-((2-oxaspiro[3.3]heptan-6-yl)amino)-3-methoxy-N-(5-(5-methyl-1H-pyrazol-1-yl)-1,3,4-thiadiazol-2-yl)-2-oxo-2H-pyran-6-carboxamide] | 60 to 200 nM
9 | COc1c(NC23COC(C2)C3)cc(C(=O)Nc2nnc(-n3nccc3C)s2)oc1=O [Compound 51, 4-((2-oxabicyclo[2.1.1]hexan-4-yl)amino)-3-methoxy-N-(5-(5-methyl-1H-pyrazol-1-yl)-1,3,4-thiadiazol-2-yl)-2-oxo-2H-pyran-6-carboxamide] | 5 to 20 nM
10 | COc1c(N[C@@H]2CCCC[C@@H]2OC)cc(C(=O)Nc2nnc(-n3nccc3C)s2)oc1=O [Compound 52, 3-methoxy-4-(((1R,2S)-2-methoxycyclohexyl)amino)-N-(5-(5-methyl-1H-pyrazol-1-yl)-1,3,4-thiadiazol-2-yl)-2-oxo-2H-pyran-6-carboxamide] | 5 to 20 nM
11 | COc1c(N[C@H]2CCCC[C@@H]2OC)cc(C(=O)Nc2nnc(-n3nccc3C)s2)oc1=O [Compound 70, 3-methoxy-4-(((1S,2S)-2-methoxycyclohexyl)amino)-N-(5-(5-methyl-1H-pyrazol-1-yl)-1,3,4-thiadiazol-2-yl)-2-oxo-2H-pyran-6-carboxamide] | 5 to 20 nM
12 | COC[C@@H](Nc1cc(C(=O)Nc2nnc(-n3nccc3C)s2)oc(=O)c1OC)C(C)C [Compound 77, (S)-3-methoxy-4-((1-methoxy-3-methylbutan-2-yl)amino)-N-(5-(5-methyl-1H-pyrazol-1-yl)-1,3,4-thiadiazol-2-yl)-2-oxo-2H-pyran-6-carboxamide] | 5 to 20 nM
13 | COC[C@H](Nc1cc(C(=O)Nc2nnc(-n3nccc3C)s2)oc(=O)c1OC)C(C)C [Compound 78, (R)-3-methoxy-4-((1-methoxy-3-methylbutan-2-yl)amino)-N-(5-(5-methyl-1H-pyrazol-1-yl)-1,3,4-thiadiazol-2-yl)-2-oxo-2H-pyran-6-carboxamide] | < 5 nM
14 | COc1c(N[C@H]2CCC[C@H]2O)cc(C(=O)Nc2nnc(-c3c(Cl)ccn3C)s2)oc1=O [Compound 83, N-(5-(3-chloro-1-methyl-1H-pyrrol-2-yl)-1,3,4-thiadiazol-2-yl)-4-(((1S,2R)-2-hydroxycyclopentyl)amino)-3-methoxy-2-oxo-2H-pyran-6-carboxamide] | < 5 nM
15 | COCC(COC)Nc1cc(C(=O)Nc2nnc(-c3c(Cl)ccn3C)s2)oc(=O)c1OC [Compound 84, N-(5-(3-chloro-1-methyl-1H-pyrrol-2-yl)-1,3,4-thiadiazol-2-yl)-4-((1,3-dimethoxypropan-2-yl)amino)-3-methoxy-2-oxo-2H-pyran-6-carboxamide] | < 5 nM

Further lines, results first:

Row | IC50 | SMILES
16 | 60 to 200 nM | COc1c(N(CCO)CCO)cc(C(=O)Nc2nnc(-n3nccc3C)s2)oc1=O (single isomer, unassigned) [Compound 158, 4-(bis(2-hydroxyethyl)amino)-3-methoxy-N-(5-(5-methyl-1H-pyrazol-1-yl)-1,3,4-thiadiazol-2-yl)-2-oxo-2H-pyran-6-carboxamide]
17 | 5 to 20 nM | COCCOc1c(N[C@H]2CCC[C@H]2O)cc(C(=O)Nc2nnc(-c3c(Cl)ccn3C)s2)oc1=O [Compound 85, N-(5-(3-chloro-1-methyl-1H-pyrrol-2-yl)-1,3,4-thiadiazol-2-yl)-4-(((1S,2R)-2-hydroxycyclopentyl)amino)-3-(2-methoxyethoxy)-2-oxo-2H-pyran-6-carboxamide]
18 | < 5 nM | COCCOc1c(N[C@@H]2CCC[C@@H]2O)cc(C(=O)Nc2nnc(-c3c(Cl)ccn3C)s2)oc1=O [Compound 86, N-(5-(3-chloro-1-methyl-1H-pyrrol-2-yl)-1,3,4-thiadiazol-2-yl)-4-(((1R,2S)-2-hydroxycyclopentyl)amino)-3-(2-methoxyethoxy)-2-oxo-2H-pyran-6-carboxamide]
19 | 20 to 60 nM | COc1c(NC[C@@H]2CCO2)cc(C(=O)Nc2nnc(-n3nccc3C)s2)oc1=O [Compound 93, (S)-3-methoxy-N-(5-(5-methyl-1H-pyrazol-1-yl)-1,3,4-thiadiazol-2-yl)-4-((oxetan-2-ylmethyl)amino)-2-oxo-2H-pyran-6-carboxamide]
20 | 5 to 20 nM | COC[C@@H](C)Nc1cc(C(=O)Nc2nnc(-c3sccc3Cl)s2)oc(=O)c1OC [Compound 94, (R)—N-(5-(3-chlorothiophen-2-yl)-1,3,4-thiadiazol-2-yl)-3-methoxy-4-((1-methoxypropan-2-yl)amino)-2-oxo-2H-pyran-6-carboxamide]
21 | 5 to 20 nM | COC[C@@H]1CCN1c1cc(C(=O)Nc2nnc(-n3nccc3C)s2)oc(=O)c1OC [Compound 95, (S)-3-methoxy-4-(2-(methoxymethyl)azetidin-1-yl)-N-(5-(5-methyl-1H-pyrazol-1-yl)-1,3,4-thiadiazol-2-yl)-2-oxo-2H-pyran-6-carboxamide]
22 | < 5 nM | COc1c(N2CCCCC2=O)cc(C(=O)Nc2nnc(-n3nccc3C)s2)oc1=O [Compound 96]
23 | 5 to 20 nM | COCC1(Nc2cc(C(=O)Nc3nnc(-n4nccc4C)s3)oc(=O)c2OC)CC1 [Compound 97, 3-methoxy-4-((1-(methoxymethyl)cyclopropyl)amino)-N-(5-(5-methyl-1H-pyrazol-1-yl)-1,3,4-thiadiazol-2-yl)-2-oxo-2H-pyran-6-carboxamide]
24 | 5 to 20 nM | COCC1(Nc2cc(C(=O)Nc3nnc(-n4nccc4C)s3)oc(=O)c2OC)COC1 [Compound 98, 3-methoxy-4-((3-(methoxymethyl)oxetan-3-yl)amino)-N-(5-(5-methyl-1H-pyrazol-1-yl)-1,3,4-thiadiazol-2-yl)-2-oxo-2H-pyran-6-carboxamide]
25 | 20 to 60 nM | COc1c(N2CCCS2(=O)=O)cc(C(=O)Nc2nnc(-n3nccc3C)s2)oc1=O [Compound 99, 4-(1,1-dioxidoisothiazolidin-2-yl)-3-methoxy-N-(5-(5-methyl-1H-pyrazol-1-yl)-1,3,4-thiadiazol-2-yl)-2-oxo-2H-pyran-6-carboxamide]
26 | 5 to 20 nM | COc1c(N[C@@H]2COC[C@H]2OC)cc(C(=O)Nc2nnc(-n3nccc3C)s2)oc1=O [Compound 102, 3-methoxy-4-(((3R,4S)-4-methoxytetrahydrofuran-3-yl)amino)-N-(5-(5-methyl-1H-pyrazol-1-yl)-1,3,4-thiadiazol-2-yl)-2-oxo-2H-pyran-6-carboxamide]
27 | 5 to 20 nM | COc1c(NC[C@H]2CCO2)cc(C(=O)Nc2nnc(-n3nccc3C)s2)oc1=O [Compound 118, (R)-3-methoxy-N-(5-(5-methyl-1H-pyrazol-1-yl)-1,3,4-thiadiazol-2-yl)-4-((oxetan-2-ylmethyl)amino)-2-oxo-2H-pyran-6-carboxamide]
